Series [1] in a line: in vitro. The settings on record: monkey, Vero cells.
Description: Selectivity index, ratio of IC50 for african green monkey (Cercopithecus aethiops) Vero cells to IC50 for chloroquine-sensitive Plasmodium falciparum D6
In series [2] the test system is Plasmodium falciparum. Kind of series: Antimalarial activity against chloroquine-sensitive Plasmodium falciparum D6 by LDH reporter assay. The series is classed as functional, organism-based. For orientation: A reporter such as luciferase makes a cellular process visible.
The test system of a further series is Leishmania donovani. In words: Antileishmanial activity against Leishmania donovani promastigotes after 72 hrs. The format is functional, organism-based.
The test system of series [3] is Vero. In words: Cytotoxicity against african green monkey Vero cells at 10 ug/ml. The format is cell-based. As to conditions: chlorocebus sabaeus.
The nature of series [4]: in vitro. The settings on record: monkey, Vero cells. The source holds these as a separate data set.
Description: Selectivity index, ratio of IC50 for african green monkey (Cercopithecus aethiops) Vero cells to IC50 for chloroquine-resistant Plasmodium falciparum W2
The subject of series [5] is Plasmodium falciparum. Kind of series: Antimalarial activity against chloroquine-resistant Plasmodium falciparum W2 by LDH reporter assay. The series is classed as functional, organism-based.
In series [6] the test system is Vero. In words: Cytotoxicity against african green monkey Vero cells. As to conditions: chlorocebus sabaeus. The series is classed as cell-based.
Another series concerns HL-60. Kind of series: Cytotoxicity against human HL60 cells by XTT assay. The format is functional, cell-based.
Another series relates to SK-OV-3. In words: Cytotoxicity against human SKOV3 cells. The series is classed as functional, cell-based.
The subject of a further series is BT-549. In words: Cytotoxicity against human BT549 cells. The format is functional, cell-based.
The next series has as its system SK-MEL. In words: Cytotoxicity against human SK-MEL cells. The series is classed as functional, cell-based.
The next series has as its system KB. In words: Cytotoxicity against human KB cells. The format is functional, cell-based.
Series [7] is described as follows: Specific index, ratio of IC50 for human HL60 cells to MIC for LFA1:CD11a/CD18/ICAM1- mediated aggregation in PMA-induced human HL60 cells. The series is classed as functional, HL-60.
In series [8] the target is T1, Integrin alpha-L (Homo sapiens) (UniProt P20701).
T1 sequence (whole entry): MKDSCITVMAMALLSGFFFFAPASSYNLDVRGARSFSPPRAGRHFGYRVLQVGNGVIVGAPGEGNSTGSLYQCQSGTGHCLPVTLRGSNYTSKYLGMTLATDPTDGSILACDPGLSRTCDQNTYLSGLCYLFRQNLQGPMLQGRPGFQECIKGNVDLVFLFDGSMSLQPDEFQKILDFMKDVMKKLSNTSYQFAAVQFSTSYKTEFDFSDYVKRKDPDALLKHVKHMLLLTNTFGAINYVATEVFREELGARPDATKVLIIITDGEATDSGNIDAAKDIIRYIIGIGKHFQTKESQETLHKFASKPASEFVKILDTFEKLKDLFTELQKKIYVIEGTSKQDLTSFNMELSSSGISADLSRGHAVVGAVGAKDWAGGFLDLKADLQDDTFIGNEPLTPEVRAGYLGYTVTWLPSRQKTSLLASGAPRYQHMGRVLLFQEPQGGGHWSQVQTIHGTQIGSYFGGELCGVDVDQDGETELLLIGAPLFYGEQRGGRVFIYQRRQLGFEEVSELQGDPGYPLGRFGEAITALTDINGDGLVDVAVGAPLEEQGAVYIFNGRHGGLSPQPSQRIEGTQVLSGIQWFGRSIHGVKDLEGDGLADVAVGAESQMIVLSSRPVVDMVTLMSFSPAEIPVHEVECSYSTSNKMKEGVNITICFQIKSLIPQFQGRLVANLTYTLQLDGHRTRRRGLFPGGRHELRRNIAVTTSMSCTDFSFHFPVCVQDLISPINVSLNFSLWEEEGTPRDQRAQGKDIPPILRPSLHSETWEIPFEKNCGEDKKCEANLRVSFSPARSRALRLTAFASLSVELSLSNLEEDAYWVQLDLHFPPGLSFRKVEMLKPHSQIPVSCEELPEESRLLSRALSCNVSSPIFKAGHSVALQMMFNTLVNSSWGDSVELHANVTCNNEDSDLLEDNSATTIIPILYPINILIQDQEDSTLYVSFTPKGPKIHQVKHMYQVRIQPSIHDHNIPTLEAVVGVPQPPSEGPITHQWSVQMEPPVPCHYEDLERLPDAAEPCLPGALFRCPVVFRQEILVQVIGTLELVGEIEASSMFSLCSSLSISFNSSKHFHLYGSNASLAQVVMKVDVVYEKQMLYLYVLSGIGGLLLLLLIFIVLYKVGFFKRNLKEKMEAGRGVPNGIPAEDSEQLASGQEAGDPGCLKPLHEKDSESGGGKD
Kind of series: Inhibition of LFA1:CD11a/CD18/ICAM1- mediated aggregation in PMA-induced human HL60 cells. The series is classed as cell-based. As to conditions: HL-60.

Series [9] is described as follows: Specific index, ratio of IC50 for human HL60 cells to MIC for LFA1:CD11a/CD18/ICAM1-mediated human HL60 cell adhesion to human HeLa cells. The series is classed as functional.
Series [10] addresses T1, Integrin alpha-L (Homo sapiens). In words: Inhibition of LFA1:CD11a/CD18/ICAM1-mediated human HL60 cell adhesion to human HeLa cells expressing ICAM1 by fluorescence analysis. The series is classed as cell-based.

The structures appear in SMILES notation. Values after ≈ are worked out from the molar mass of the structure shown. Active and inactive are the calls of the source. The rule behind the calls is not given here. Where only a bound is given, the exact number is not on record here.

The IC50 is the concentration that inhibits the measured activity by half. By IC90 is commonly meant the concentration at which the effect reaches the 90% level. Take `CC[C@H]1CN2CCc3cc(OC)c(OC)cc3[C@@H]2C[C@@H]1C[C@@H]1NCCc2cc(O)c(O)cc21`: the selectivity ratio is more than 7 in the series “in vitro [1]” and more than 3 in the series “in vitro [4]”. Besides, the IC50 came to 1.5 µg/mL (≈ 3.31 µM) in the series with Plasmodium falciparum [2], 7.5 µg/mL (≈ 16.6 µM) with Leishmania donovani and 3.07 µg/mL (≈ 6.78 µM) in the series on Plasmodium falciparum [5]. The IC90 in the series with Leishmania donovani stood at 19 µg/mL (≈ 42 µM). For the same compound, the Activity entry in the series on Vero [3] is on record as “Non-toxic”.

`C[C@@H]1[C@H](O)[C@@H](C)/C=C/C=C/C=C/C=C/C=C/C=C/C=C/[C@H](O[C@@H]2O[C@H](C)[C@@H](O)[C@H](N)[C@@H]2O)C[C@@H]2O[C@](O)(C[C@@H](O)C[C@@H](O)[C@H](O)CC[C@@H](O)C[C@@H](O)CC(=O)O[C@H]1C)C[C@H](O)[C@H]2C(=O)O` [AMPHOTERICIN B]: in the series on Leishmania donovani, the IC50 is 0.17 µg/mL (≈ 0.184 µM) and the IC90 amounted to 0.28 µg/mL (≈ 0.303 µM).

In the case of `C[C@@H]1CC[C@H]2[C@@H](C)C(=O)O[C@@H]3O[C@@]4(C)CC[C@@H]1[C@]32OO4` [ARTEMISININ], the selectivity ratio was more than 699 in “in vitro [1]” and more than 1180 in “in vitro [4]”. For the same compound, the figures for the IC50 with Plasmodium falciparum [2] and in the series on Plasmodium falciparum [5] were 0.0143 µg/mL (≈ 0.0506 µM) and 0.0085 µg/mL (≈ 0.0301 µM), respectively. For the same compound, the Activity entry in the series with Vero [3] is listed as “Non-toxic”.

Take `CC[C@H]1CN2CCc3cc(OC)c(OC)cc3[C@@H]2C[C@@H]1C[C@H]1NCCc2cc(O)c(OC)cc21` [CEPHAELINE]: the selectivity ratio in “in vitro [1]” was determined as 132; in “in vitro [4]”, 193. The IC50 stood at 5.3 µg/mL (≈ 11.4 µM) in the series on Vero [6]; 14.9 µg/mL (≈ 31.9 µM) in the series with HL-60; 0.18 µg/mL (≈ 0.386 µM) with SK-OV-3; 0.86 µg/mL (≈ 1.84 µM) in the series on BT-549; 0.25 µg/mL (≈ 0.536 µM) in the series on SK-MEL; 0.33 µg/mL (≈ 0.707 µM) in the series on KB. The IC50 with Plasmodium falciparum [2] was determined as 0.038 µg/mL (≈ 0.0814 µM); in the series with Leishmania donovani, 0.03 µg/mL (≈ 0.0643 µM); in the series with Plasmodium falciparum [5], 0.0277 µg/mL (≈ 0.0594 µM). In the series with Leishmania donovani, this compound yielded an IC90 of 1.5 µg/mL (≈ 3.21 µM). Moreover, the Ratio in series [7] amounted to 2.17. This compound also showed an MIC in [8] of 6.9 µg/mL (≈ 14.8 µM).

On to `CCN(CC)CCCC(C)Nc1ccnc2cc(Cl)ccc12` (centres undefined) [CHLOROQUINE], for which the Activity result in the series with Vero [3] is given as “Non-toxic”.

As for `C=C1[C@@H](C)[C@H]2[C@H](Cc3ccccc3)NC(=O)[C@]23OC(=O)/C=C/[C@H](O)CCC[C@@H](C)C/C=C/[C@H]3[C@@H]1O` [CYTOCHALASIN B], the IC50 in the series with HL-60 is more than 30 µg/mL. In addition, the results for the Ratio in [9] and in series [7] were more than 5.5 and 13, respectively. This compound also showed an MIC in series [8] of 2.5 µg/mL (≈ 5.21 µM).

As to `COc1cccc2c1C(=O)c1c(O)c3c(c(O)c1C2=O)C[C@@](O)(C(=O)CO)C[C@@H]3O[C@H]1C[C@H](N)[C@H](O)[C@H](C)O1` [DOXORUBICIN], the IC50 in the series with SK-OV-3 was determined as 1.53 µg/mL (≈ 2.81 µM); in the series on BT-549 it was 1 µg/mL (≈ 1.84 µM); in the series on SK-MEL, 1.57 µg/mL (≈ 2.89 µM); in the series with KB, 1.7 µg/mL (≈ 3.13 µM).

Take `CC[C@H]1CN2CCc3cc(OC)c(OC)cc3[C@@H]2C[C@@H]1C[C@H]1NCCc2cc(OC)c(OC)cc21` [EMETINE]: the selectivity ratio stood at 6 in “in vitro [1]” and 5 in the series “in vitro [4]”. In addition, the IC50 in the series with Vero [6] was determined as 0.42 µg/mL (≈ 0.874 µM); in the series with HL-60, 0.38 µg/mL (≈ 0.791 µM); in the series on Plasmodium falciparum [2], 0.0727 µg/mL (≈ 0.151 µM); in the series on Leishmania donovani it was 0.03 µg/mL (≈ 0.0624 µM); with Plasmodium falciparum [5] it was 0.078 µg/mL (≈ 0.162 µM). This compound returned an IC90 in the series with Leishmania donovani of 0.13 µg/mL (≈ 0.27 µM). Moreover, in series [7], the Ratio was determined as 1.53. In [8], the MIC was determined as 0.26 µg/mL (≈ 0.541 µM).

Take `CC[C@H]1CN2CCc3cc(OC)c(OC)cc3[C@@H]2C[C@@H]1C[C@@H]1NCCc2cc(O)c(OC)cc21` [ISOCEPHAELINE]: the values for the selectivity ratio in the series “in vitro [1]” and in the series “in vitro [4]” were more than 54 and more than 35, respectively. Also, the IC50 was more than 10 µg/mL with SK-OV-3; more than 10 µg/mL in the series with BT-549; more than 10 µg/mL in the series on SK-MEL; more than 10 µg/mL in the series with KB; 0.187 µg/mL (≈ 0.4 µM) in the series with Plasmodium falciparum [2]; 0.45 µg/mL (≈ 0.964 µM) in the series on Leishmania donovani. The compound further showed an IC50 with Plasmodium falciparum [5] of 0.29 µg/mL (≈ 0.621 µM). In the series on Leishmania donovani, it took 0.98 µg/mL (≈ 2.1 µM) to reach the 90% level (IC90). In the series on Vero [3], the Activity entry is given as “Non-toxic”.

In the case of `CC[C@H]1CN2CCc3cc(O)c(OC)cc3[C@@H]2C[C@@H]1C[C@@]1(O)NCCc2cc(O)c(OC)cc21` [KLUGINE], the selectivity ratio in “in vitro [1]” is more than 265; in “in vitro [4]”, more than 217. The outcome in series [10] was inactive. Also, the IC50 in the series on HL-60 is 25 µg/mL (≈ 53.4 µM); in the series with SK-OV-3, more than 10 µg/mL; in the series with BT-549, more than 10 µg/mL; in the series on SK-MEL it was more than 10 µg/mL; with KB it was more than 10 µg/mL; with Plasmodium falciparum [2] it was 0.0377 µg/mL (≈ 0.0805 µM). Further, the values for the IC50 with Leishmania donovani and in the series with Plasmodium falciparum [5] were 0.4 µg/mL (≈ 0.854 µM) and 0.0463 µg/mL (≈ 0.0988 µM), respectively. Further, in the series on Leishmania donovani, the IC90 was found to be 2.5 µg/mL (≈ 5.34 µM). Moreover, the Activity result with Vero [3] was “Non-toxic”. Moreover, in [7], the Ratio is on record as 1.2. The MIC in [8] was determined as 20.8 µg/mL (≈ 44.4 µM).

In the series on Leishmania donovani, `N=C(N)c1ccc(OCCCCCOc2ccc(C(=N)N)cc2)cc1` [PENTAMIDINE] yielded an IC90 of 2.4 µg/mL (≈ 7.05 µM).

For the origin of these results see ChEMBL document CHEMBL1146553, “Antiparasitic alkaloids from Psychotria klugii” (J Nat Prod, 2003).
